Experimental data: paper PMC10611578, “Aβ1-6A2V(D) peptide, effective on Aβ aggregation, inhibits tau misfolding and protects the brain after traumatic brain injury” (Molecular Psychiatry, 2023)
Square brackets hold non-standard residues; d marks the D form. Peptide text beside a SMILES is read from it.

Experiments:
[1] = test system: tau (P301L mouse brain homogenate); test: Western blot of total tau level in P301L brain lysate; format: biochemical, human tau with P301L mutation, JNPL3 mice; conditions: 50 µM, 2 h at 25 °C, 30 µg protein/100 µL, PBS pH 7.4, DAKO/actin band; mean ± SD, N = 3, p < 0.05
Source text: Male JNPL3 mice expressing 0N4R human tau with the P301L mutation (P301L) were obtained from Taconic Biosciences (New York, USA) (Tau Model 2508). Controls were non-transgenic (Non-tg) male mice with the same mixed C57BL/6, DBA/2, SW genetic background as P301L mice. Triple transgenic mice harboring human PS1(M146 V), APP(SW), and MAPT(P301L) transgenes, referred to as 3xTg-AD, were kindly provided by Dr. Oddo [34]. Male and female C57BL/6 J mice, referred to as wild type (WT), were purchased from Envigo (Italy).
Fig. 2 Effect of Aβ1-6A2V-TAT(D) on the toxicity caused in C. elegans by misfolded tau in P301L and TBI brain homogenates. A Brains from P301L mice were homogenized in 10 mM PBS, pH 7.4, and given to worms alone or in the presence of Aβ1-6A2V-TAT(D). B Worms were administered with brain homogenate (30 µg protein/100 worms/100 µL) in the absence or presence of Aβ1-6A2V-TAT(D) (0-200 µM). […] E Representative western blotting showing the total level of tau and tau quantification expressed as the mean volume of the DAKO band immunoreactivity/actin band. […] The reaction was then stopped, and samples were analyzed by western blot. […]
Lysates from brain homogenates of P301L mice (30 µg protein/100 µL) incubated for 2 h at 25°C with 50 µM Aβ1-6A2V-TAT(D), 50 µM Aβ1-6A2V(D), 50 µM TAT or 10 mM PBS, pH 7.4, were analyzed by immunoblotting using 10% SDS-PAGE gel and Western blotting analysis. […]

[2] = test system: insoluble tau (P301L mouse brain homogenate); test: Detergent insolubility assay of tau in P301L brain lysate; format: biochemical, human tau with P301L mutation, JNPL3 mice; conditions: 50 µM, 2 h at 25 °C, PBS pH 7.4; mean ± SD, N = 4-5

In the case of CC(C)[C@@H](NC(=O)[C@H](N)CC(=O)O)C(=O)N[C@H](CCC(=O)O)C(=O)N[C@H](Cc1ccccc1)C(=O)N[C@H](CCCNC(=N)N)C(=O)N[C@H](Cc1c[nH]cn1)C(=O)NCC(=O)NCC(=O)NCC(=O)NCC(=O)NCC(=O)N[C@H](CCCNC(=N)N)C(=O)N[C@H](CCCCN)C(=O)N[C@H](CCCCN)C(=O)N[C@H](CCCNC(=N)N)C(=O)N[C@H](CCCNC(=N)N)C(=O)N[C@H](CCC(N)=O)C(=O)N[C@H](CCCNC(=N)N)C(=O)N[C@H](CCCNC(=N)N)C(=O)N[C@H](CCCNC(=N)N)C(=O)O [Aβ1-6A2V-TAT(D)] (H-[dD][dV][dE][dF][dR][dH]GGGGG[dR][dK][dK][dR][dR][dQ][dR][dR][dR]-OH; N-terminus assumed), the “Total tau protein level in P301L brain homogenate” value [1] is reported as “significantly reduced the tau protein level” and the “Fraction of insoluble tau in P301L brain homogenate” value [2] is reported as “without affecting the fraction of insoluble tau”.
